The results in this text go back to patent US12194057B2, “NXTAR-derived oligonucleotides and uses thereof” (Washington University, priority 2020, dated 2025).

Oligonucleotides are written 5' to 3', each unit as a sugar letter and its base; * is a phosphorothioate linkage, no mark a phosphodiester; rarer units and linkages stand in square brackets, end groups in braces. Plain capitals give the bases only. d = 2'-deoxy (DNA)

In one series the test system is AR. In words: qRT-PCR of AR and AR target gene expression in prostate cancer cells. Type of series: cell-based, human. As to the method: (§1) NXTAR-N5 oligonucleotide was synthesized by IDT, and the oligonucleotide sequence is provided in TABLE 1 and FIG. 7C (* represents phosphorothioate bond modifications to avoid degradation by exonucleases). Equal numbers of VCaP and 22Rv1 cells were transfected with NXTAR-N5 or globin-derived oligonucleotide using X-tremeGENE360 (Sigma-Aldrich, Cat #08724121001), and the number of live cells was counted 96 h post-transfection using trypan blue exclusion method (Sigma, Cat #T8154). RNA was prepared from these cells, and qRT-PCR [SYBR PremixEx Taq II (Tli RNase H Plus)ROX, Clontech Takara, Cat #RR82LR] for AR and AR-V7 was performed as described earlier (see e.g., Mahajan et al. (2017) Cancer Cell).
(§2) Cells were transfected, infected or treated [(R)-9b; EPZ6438, TargetMol, Cat #T1788] accordingly. RNA was used for cDNA preparation using High-Capacity cDNA Reverse Transcription Kit (Thermo Scientific Cat #4368814). Resulting cDNA was then analyzed by qPCR using an Applied Biosystems 7900 Real-Time PCR System (Thermo Scientific) and SYBR Green PCR Master Mix [SYBR PremixEx Taq II (Tli RNase H Plus) ROX, Clontech Takara, Cat #RR82LR] according to the manufacturers' instructions. Dissociation curves were generated for each plate to verify the integrity of the primers. The relative expression of RNAs was calculated using the comparative Ct or standard curve method. 18S rRNA or actin were used as internal controls.

The subject of a further series is NXTAR. In words: qRT-PCR of NXTAR expression in prostate cancer cell lines. Type of series: cell-based, human. The method, then: as §2
On the technique in general: In qPCR the cycle at which signal appears reflects the starting amount.

The subject of another series is VCaP and 22Rv1 cells. In words: Proliferation assay, viable cells by trypan blue exclusion. Type of series: cell-based, human. As to the method: as §1
The 22Rv1, VCaP, or LNCaP cells were retrovirally infected with control or NXTAR vectors and selected in puromycin medium containing 5% charcoal-stripped serum. Equal numbers of selected cells were seeded in 6-well plates followed by treatment with either (R)-9b, enzalutamide (Selleck Chemicals, Cat #S1250), or abiraterone (Selleck Chemicals, Cat #52246), and the number of viable cells was counted by trypan blue exclusion assay.

The next series has as its system NXTAR promoter. In words: ChIP-qPCR at NXTAR promoter (Ppr3, Ppr4), IRF8 binding site and NXTAR enhancer. Format: cell-based, human. The following applies: 22Rv1 and LNCaP cells, (R)-9b combined with CPTH2. The method, then: (§3) Chromatin immunoprecipitation (ChIP), quantitative RT-PCR, and ChIP-qPCR were performed as described earlier (see e.g., Mahajan et al. (2017) Cancer Cell; Mahajan et al. (2012) J Biol Chem; and Mahajan et al. (2012) Nat Struct Mol Bio). Briefly, cells were either transfected, infected or treated with various inhibitors (R)-9b; CPTH2 (Sigma, Cat #C9873)], fixed in formaldehyde, lysed and ChIP was performed with antibodies recognizing AR (SCBT, sc-7305; RRID:AB_626671), GCN5 (SCBT, SC-365321; RRID:AB_10846182), H3K14ac (CST, 7627S; RRID:AB_10839410), H3K27me3 (CST, 9733S; RRID:AB 2616029), NCOR1 (Bethyl Laboratories, Cat #A301-145A; RRID:AB_873085), EZH2 (CST, 5246S; RRID:AB_10694683), or IgG (Abcam, ab2410; RRID:AB_303052), immobilized on Protein A magnetic beads (Biorad, Cat #161-4013). The complexes were washed with ChIP buffers, eluted with elution buffer (Active Motif, Cat #53008), and subjected to reverse crosslinking, followed by RNase and proteinase K treatments. A part of soluble chromatin was processed separately at the same time and designated as input DNA. Treated ChIP DNA and input DNAs were purified using PCR-DNA purification columns (Qiagen, Cat #28106). The amount of immunoprecipitated DNA was determined by real-time PCR.

For the next series, the target named is T1, purified EZH2 (Homo sapiens, UniProt Q15910).
T1 construct: made in house
T1 sequence (Q15910 whole entry): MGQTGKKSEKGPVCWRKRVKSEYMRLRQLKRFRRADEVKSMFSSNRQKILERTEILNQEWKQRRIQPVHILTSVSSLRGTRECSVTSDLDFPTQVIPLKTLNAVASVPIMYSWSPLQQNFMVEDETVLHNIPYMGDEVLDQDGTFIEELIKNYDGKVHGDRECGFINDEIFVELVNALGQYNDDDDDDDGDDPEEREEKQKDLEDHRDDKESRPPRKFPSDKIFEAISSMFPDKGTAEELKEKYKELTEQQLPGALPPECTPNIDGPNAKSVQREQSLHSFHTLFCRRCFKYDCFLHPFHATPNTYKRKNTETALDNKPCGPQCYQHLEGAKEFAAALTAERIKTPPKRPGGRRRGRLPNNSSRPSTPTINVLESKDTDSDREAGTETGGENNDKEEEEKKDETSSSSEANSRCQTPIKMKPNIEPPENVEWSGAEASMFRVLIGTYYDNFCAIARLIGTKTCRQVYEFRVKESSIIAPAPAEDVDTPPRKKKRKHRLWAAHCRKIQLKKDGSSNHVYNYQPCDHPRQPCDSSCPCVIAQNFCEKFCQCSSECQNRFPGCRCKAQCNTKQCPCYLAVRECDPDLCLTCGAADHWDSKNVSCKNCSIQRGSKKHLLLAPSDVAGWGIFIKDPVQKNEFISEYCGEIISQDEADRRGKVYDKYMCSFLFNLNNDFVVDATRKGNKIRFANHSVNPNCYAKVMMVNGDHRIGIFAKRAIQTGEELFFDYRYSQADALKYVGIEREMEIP
The series can be described thus: EZH2 pull-down assay with purified 6xHis-tagged EZH2. Type of series: binding. Particulars: pull-down, immunoblotting. The method, then:
1 mg of lysate prepared from HEK293 cells transfected with 6λHis-tagged-EZH2 plasmid was incubated with Ni-NTA agarose beads (Qiagene) overnight at 4° C. Beads were washed three times using wash buffer (20 mM Tris/HCl, 200 mM NaCl, 5 mM imidazole; pH 7.5) and purified EZH2 was eluted using elution buffer (20 mM Tris/HCl, 200 mM NaCl, 200 mM imidazole; pH 7.5).
LncRNA-Protein binding study was performed as described earlier (see e.g., Zhao, Wang, and Hu (2021) Methods Mol Bio). Briefly, 10 pmol Biotinylated NXTAR-N5 oligo or Biotinylated Globin oligos were diluted in 40 ul RNA structure buffer, heated at 90° C. for 2 min, immediately transferred onto ice for 2 min and then kept at RT for further 20 mins. 10 uM of purified EZH2 protein was added to these biotinylated oligos with 500 ul of NETN buffer and the tubes were placed at 4° C. for 2 hrs. Post washing with cold NETN buffer, streptavidin magnetic beads (60 ul) were added into prepared oligo-protein mix and incubated at 4° C. overnight. Beads were washed 3 times with NETN buffer, followed by western blot analysis. […]
(In general: A western blot detects proteins with antibodies after separation by electrophoresis.)

A further series relates to AR-V7. The series can be described thus: qRT-PCR of AR-V7 expression in prostate cancer cells. Format: cell-based, human. Particulars: VCaP and 22Rv1 cells transfected with oligonucleotide. The method, then:
as §1
as §2, with “18S rRNA or actin were used as internal controls.” left out

The next series deals with T2, EZH2 (Homo sapiens, UniProt Q15910).
T2 construct: endogenous in cells; host or cells: VCaP cells (some retrovirally infected to over-express NXTAR lncRNA)
T2 sequence (Q15910 whole entry): as above
T2 sequence (O75530 whole entry partner): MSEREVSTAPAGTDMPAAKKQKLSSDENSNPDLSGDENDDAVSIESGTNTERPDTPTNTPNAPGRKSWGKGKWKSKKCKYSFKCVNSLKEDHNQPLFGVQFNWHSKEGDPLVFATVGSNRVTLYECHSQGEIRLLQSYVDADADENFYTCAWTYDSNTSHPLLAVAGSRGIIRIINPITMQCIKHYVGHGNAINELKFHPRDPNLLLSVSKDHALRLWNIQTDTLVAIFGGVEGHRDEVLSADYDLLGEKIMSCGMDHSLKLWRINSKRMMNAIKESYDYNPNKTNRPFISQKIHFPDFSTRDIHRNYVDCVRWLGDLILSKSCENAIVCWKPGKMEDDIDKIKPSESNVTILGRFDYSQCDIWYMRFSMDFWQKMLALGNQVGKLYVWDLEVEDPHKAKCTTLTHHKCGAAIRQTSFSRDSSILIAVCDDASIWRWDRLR
T2 sequence (Q15022 whole entry partner): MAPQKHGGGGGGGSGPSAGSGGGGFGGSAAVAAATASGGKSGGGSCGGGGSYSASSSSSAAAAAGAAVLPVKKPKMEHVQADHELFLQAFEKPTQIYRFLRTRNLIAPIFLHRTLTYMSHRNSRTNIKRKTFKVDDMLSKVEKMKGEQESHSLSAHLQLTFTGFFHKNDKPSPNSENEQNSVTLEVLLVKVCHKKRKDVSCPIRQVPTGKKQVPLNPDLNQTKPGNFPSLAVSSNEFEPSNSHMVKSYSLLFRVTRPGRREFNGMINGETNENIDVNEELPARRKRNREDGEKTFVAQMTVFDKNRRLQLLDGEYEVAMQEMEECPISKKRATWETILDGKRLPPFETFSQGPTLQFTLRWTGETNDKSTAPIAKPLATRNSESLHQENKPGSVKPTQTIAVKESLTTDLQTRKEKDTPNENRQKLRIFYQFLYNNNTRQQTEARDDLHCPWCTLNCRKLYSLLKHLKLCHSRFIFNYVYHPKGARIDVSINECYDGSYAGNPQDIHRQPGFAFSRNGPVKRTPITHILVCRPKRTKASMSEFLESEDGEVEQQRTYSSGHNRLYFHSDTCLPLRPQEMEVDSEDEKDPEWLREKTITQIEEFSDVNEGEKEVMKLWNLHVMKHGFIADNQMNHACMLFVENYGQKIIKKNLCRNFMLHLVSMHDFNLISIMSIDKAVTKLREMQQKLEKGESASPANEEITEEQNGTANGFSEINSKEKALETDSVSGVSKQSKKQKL
T2 sequence (Q09028 whole entry partner): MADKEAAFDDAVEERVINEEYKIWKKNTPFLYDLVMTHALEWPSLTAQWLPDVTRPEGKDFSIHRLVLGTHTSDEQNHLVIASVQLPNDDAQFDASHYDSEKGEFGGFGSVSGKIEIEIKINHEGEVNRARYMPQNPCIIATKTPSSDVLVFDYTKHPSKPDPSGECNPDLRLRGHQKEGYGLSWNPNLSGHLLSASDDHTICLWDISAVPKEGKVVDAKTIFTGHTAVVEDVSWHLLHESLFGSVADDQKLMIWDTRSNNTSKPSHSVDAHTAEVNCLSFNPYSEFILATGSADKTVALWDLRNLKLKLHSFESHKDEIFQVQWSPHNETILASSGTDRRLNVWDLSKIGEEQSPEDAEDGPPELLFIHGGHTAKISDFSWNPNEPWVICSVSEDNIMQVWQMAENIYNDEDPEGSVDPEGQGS
The series can be described thus: Pull-down from VCaP cell lysates with biotinylated oligos, immunoblotting for EZH2. Type of series: binding. The following applies: VCaP cell lysate, chromatin pull-down. As to the method:
The biotinylated oligonucleotides were incubated with lysates (2 h), and the lysates were incubated with streptavidin magnetic beads overnight. Beads attached to RNAs were divided equally and processed for either RNA isolation or western blotting. For RNA isolation, beads were washed three times and then separated using proteinase K treatment. RNA was then isolated and purified, and DNA was digested in the process. The real-time quantitative RT-PCR was performed on isolated RNA to check the efficiency of pull-down of NXTAR RNA. The remaining beads were heated at 80° C. for 5 min in loading buffer, followed by western blotting. The blots were probed with EZH2 (CST, 5246S; RRID:AB_10694683) antibody and Actin (SCBT, sc-47778; RRID:AB_2714189) was used as the loading control.
(§4) Biotin-labeled NXTAR-N5 (complementary to the AR promoter) and globin oligos were synthesized (IDT) (see e.g., TABLE 1). ChIRP was performed using lysate from formaldehyde-fixed VCaP cells and oligos that were immobilized to streptavidin beads, as described earlier (see e.g., Chu and Chang (2016) Methods Mol Bio). The amount of the chromatin DNA was determined by real-time PCR. For detection of NXTAR-N5/EZH2 binding, biotin-labeled NXTAR-N5 oligo and control globin oligo were incubated with VCaP cell lysates and were subjected to chromatin pull-down, followed by immunoblotting with EZH2 antibodies.

A further series deals with AR promoter. In words: ChIP-qPCR (EZH2, H3K27me3) at AR promoter. The following applies: VCaP cells transfected with oligo, ChIP. Format: cell-based, human. As to the method:
as §3

In the next series the test system is upstream of AR. In words: ChIRP with biotin-labeled oligos and VCaP lysate, qPCR with AR Up1.1 primers. Type of series: binding, human. The following applies: biotinylated oligo on streptavidin beads, VCaP lysate, qPCR AR Up1.1. As to the method:
as §4

Where [1] appears, read: Enzalutamide-resistant VCaP cells, 7 μM enzalutamide, 96 h.

With `CNC(=O)c1ccc(N2C(=S)N(c3ccc(C#N)c(C(F)(F)F)c3)C(=O)C2(C)C)cc1F` [enzalutamide, reference compound], the AR levels entry in the series on AR (setting [1]) is “marginal decrease in AR levels”. In addition, in the series with NXTAR (setting [1]), the NXTAR levels entry was “no change in NXTAR levels”. Moreover, in the series on VCaP and 22Rv1 cells (VCaP (9 days) and 22Rv1 (5 days) cells, androgen-deprived, drug treatment), the “proliferation (number of viable cells)” value is listed as “did not result in a significant decrease in proliferation”.

Turning to `Clc1ccc(-c2csc(NN=C3CCCC3)n2)cc1` [CPTH2], the “NXTAR levels following (R)-9b treatment under GCN5 inhibition” value in the series with NXTAR (22Rv1 and LNCaP cells, CPTH2 in combination with (R)-9b) is given as “severely compromised”. Moreover, the “H3K14ac mark deposition at Ppr3 and Ppr4” value in the series on NXTAR promoter is on record as “abrogated”.

For the compound “NXTAR-N5: 60-mer oligonucleotide, nt 511-570 of SEQ ID NO: 58, terminal phosphorothioate bonds (SEQ ID NO: 1) (DNA dA*dT*dT*dAdTdTdAdTdTdTdTdAdAdAdTdTdTdAdCdAdGdAdAdGdGdGdGdAdAdAdCdTdAdAdGdAdAdTdTdAdTdAdGdAdCdAdTdGdAdAdGdTdGdAdCdTdC*dA*dC*dC)”, the “interaction with purified EZH2” value in the series with purified EZH2 is on record as “interaction with purified EZH2 (as described above) was confirmed”. Further, the AR-V7 transcription entry in the series on AR-V7 was “significant decrease”. For the same compound, the “interaction with EZH2” value with EZH2 was “interaction with EZH2 was confirmed”. Further, in the series on AR (VCaP and 22Rv1 cells transfected with oligonucleotide), the AR transcription result is “significant decrease”. In addition, in the series on AR (transfection of oligos, prostate and other cancer cell lines), the AR expression entry was “highly effective”. Besides, in the series on AR promoter, the “histone H3K27 methylation in the AR promoter region (−0.7 kb)” value is reported as “induced histone H3K27 methylation”. For the same compound, the “binding upstream of AR” value in the series on upstream of AR was “bound upstream of AR”. The “proliferation (live cells)” value in the series on VCaP and 22Rv1 cells (VCaP and 22Rv1 cells, 96 h post-transfection) is recorded as “compromised proliferation”.

For the compound `CCN(c1cc(-c2ccc(CN3CCOCC3)cc2)cc(C(=O)NCc2c(C)cc(C)[nH]c2=O)c1C)C1CCOCC1` [EPZ6438, reference compound], the AR expression result in the series on AR (VCaP cells infected with NXTAR construct, EPZ6438 1 μM overnight) is listed as “restored the AR expression”.
